Like-named read-outs stand apart in the source and are kept apart here.
Experiments:
Assay in all cases: SelectScreen Kinase Profiling, single point inhibition and IC50 for off-target kinases
Format in all cases: biochemical
off-target kinases [1] = molecular target: off-target kinases (Homo sapiens, UniProt P07948); details: LYN A, ATP Km app, ZLYTE
off-target kinases [2] = molecular target: off-target kinases (Homo sapiens, UniProt P10721, A829P); details: KIT A829P, LanthaScreen Binding
off-target kinases [3] = molecular target: off-target kinases (Homo sapiens, UniProt P29597); details: TYK2, ATP Km app, ZLYTE
off-target kinases [4] = molecular target: off-target kinases (Homo sapiens, UniProt P45984); details: MAPK9 (JNK2)
off-target kinases [5] = molecular target: off-target kinases (Homo sapiens, UniProt P50750)
off-target kinases [6] = molecular target: off-target kinases (Homo sapiens, UniProt Q15349); details: RPS6KA2 (RSK3), ZLYTE, ATP Km app
off-target kinases [7] = molecular target: off-target kinases (Homo sapiens, UniProt Q9BYP7)
off-target kinases [8] = molecular target: off-target kinases (Homo sapiens, UniProt Q9UQM7)
Chain of off-target kinases (Homo sapiens, UniProt Q9UQM7) (Q9UQM7 whole entry): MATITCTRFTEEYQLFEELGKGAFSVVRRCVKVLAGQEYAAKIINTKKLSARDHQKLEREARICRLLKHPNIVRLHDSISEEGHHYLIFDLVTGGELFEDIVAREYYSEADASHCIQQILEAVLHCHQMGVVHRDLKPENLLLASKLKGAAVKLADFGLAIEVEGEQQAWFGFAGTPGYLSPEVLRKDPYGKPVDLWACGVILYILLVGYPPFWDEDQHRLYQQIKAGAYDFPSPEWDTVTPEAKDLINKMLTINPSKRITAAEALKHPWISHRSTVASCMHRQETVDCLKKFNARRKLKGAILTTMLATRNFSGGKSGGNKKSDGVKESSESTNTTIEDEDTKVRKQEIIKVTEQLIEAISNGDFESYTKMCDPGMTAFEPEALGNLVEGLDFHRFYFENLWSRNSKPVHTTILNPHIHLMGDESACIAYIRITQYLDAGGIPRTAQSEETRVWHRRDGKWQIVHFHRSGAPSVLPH

Chain of off-target kinases (Homo sapiens, UniProt P07948) (P07948 whole entry): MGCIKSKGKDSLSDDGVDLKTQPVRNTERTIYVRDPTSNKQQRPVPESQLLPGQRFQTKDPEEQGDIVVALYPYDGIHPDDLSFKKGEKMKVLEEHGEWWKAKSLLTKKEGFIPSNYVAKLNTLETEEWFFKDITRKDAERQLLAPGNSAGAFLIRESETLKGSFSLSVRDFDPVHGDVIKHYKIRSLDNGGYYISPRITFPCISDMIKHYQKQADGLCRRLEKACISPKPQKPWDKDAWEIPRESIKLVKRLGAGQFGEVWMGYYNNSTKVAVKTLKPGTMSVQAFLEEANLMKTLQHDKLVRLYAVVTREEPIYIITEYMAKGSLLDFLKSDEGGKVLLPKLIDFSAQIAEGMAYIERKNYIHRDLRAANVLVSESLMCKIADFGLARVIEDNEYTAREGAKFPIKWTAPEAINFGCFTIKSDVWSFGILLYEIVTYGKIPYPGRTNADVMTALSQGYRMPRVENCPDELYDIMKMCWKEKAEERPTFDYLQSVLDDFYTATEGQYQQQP
Chain of off-target kinases (Homo sapiens, UniProt P10721, A829P) (P10721 26-976 A829P): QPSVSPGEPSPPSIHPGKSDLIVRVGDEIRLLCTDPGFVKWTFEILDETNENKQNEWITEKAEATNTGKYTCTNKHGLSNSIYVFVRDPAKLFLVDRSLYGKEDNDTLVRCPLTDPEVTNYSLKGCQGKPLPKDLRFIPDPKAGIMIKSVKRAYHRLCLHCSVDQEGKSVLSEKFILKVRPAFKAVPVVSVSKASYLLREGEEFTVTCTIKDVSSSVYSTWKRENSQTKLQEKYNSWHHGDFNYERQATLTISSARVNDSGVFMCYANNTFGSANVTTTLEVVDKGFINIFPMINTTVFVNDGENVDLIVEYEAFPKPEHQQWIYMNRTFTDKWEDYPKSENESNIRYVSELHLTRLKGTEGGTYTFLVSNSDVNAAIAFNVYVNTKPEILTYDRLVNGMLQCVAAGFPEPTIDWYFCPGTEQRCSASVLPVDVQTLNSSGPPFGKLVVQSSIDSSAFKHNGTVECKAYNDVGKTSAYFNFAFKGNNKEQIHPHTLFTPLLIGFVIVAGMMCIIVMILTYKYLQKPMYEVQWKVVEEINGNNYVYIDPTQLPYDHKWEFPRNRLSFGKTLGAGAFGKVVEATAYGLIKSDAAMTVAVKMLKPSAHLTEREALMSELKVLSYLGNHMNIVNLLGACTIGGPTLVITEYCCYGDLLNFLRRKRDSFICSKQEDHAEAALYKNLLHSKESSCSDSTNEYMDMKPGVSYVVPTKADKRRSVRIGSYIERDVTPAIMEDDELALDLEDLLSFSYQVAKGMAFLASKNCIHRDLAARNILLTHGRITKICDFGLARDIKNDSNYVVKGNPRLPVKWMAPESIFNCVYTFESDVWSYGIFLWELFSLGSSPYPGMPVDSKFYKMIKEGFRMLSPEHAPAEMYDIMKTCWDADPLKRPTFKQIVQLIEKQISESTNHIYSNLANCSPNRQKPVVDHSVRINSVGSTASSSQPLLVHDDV
Chain of off-target kinases (Homo sapiens, UniProt Q15349) (Q15349 whole entry): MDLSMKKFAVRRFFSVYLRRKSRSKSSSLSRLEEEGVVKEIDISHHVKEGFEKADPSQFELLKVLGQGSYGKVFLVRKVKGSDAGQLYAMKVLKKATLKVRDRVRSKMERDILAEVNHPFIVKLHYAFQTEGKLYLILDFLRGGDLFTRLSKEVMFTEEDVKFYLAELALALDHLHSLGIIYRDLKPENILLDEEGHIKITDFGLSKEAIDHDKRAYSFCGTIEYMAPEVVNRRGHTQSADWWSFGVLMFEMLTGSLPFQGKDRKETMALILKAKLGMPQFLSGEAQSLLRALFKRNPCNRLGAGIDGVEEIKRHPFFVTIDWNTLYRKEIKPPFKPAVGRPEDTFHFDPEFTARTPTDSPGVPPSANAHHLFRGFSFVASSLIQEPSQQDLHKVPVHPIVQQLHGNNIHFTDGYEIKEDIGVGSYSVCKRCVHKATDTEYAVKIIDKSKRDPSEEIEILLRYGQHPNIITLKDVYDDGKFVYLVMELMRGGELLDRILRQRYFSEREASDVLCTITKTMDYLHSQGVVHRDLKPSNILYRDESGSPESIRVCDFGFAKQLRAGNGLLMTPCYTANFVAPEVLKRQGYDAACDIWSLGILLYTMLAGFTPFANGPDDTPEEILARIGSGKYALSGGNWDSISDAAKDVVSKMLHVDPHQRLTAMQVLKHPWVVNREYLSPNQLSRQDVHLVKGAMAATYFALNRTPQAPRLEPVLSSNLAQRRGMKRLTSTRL
Chain of off-target kinases (Homo sapiens, UniProt P50750) (P50750 whole entry): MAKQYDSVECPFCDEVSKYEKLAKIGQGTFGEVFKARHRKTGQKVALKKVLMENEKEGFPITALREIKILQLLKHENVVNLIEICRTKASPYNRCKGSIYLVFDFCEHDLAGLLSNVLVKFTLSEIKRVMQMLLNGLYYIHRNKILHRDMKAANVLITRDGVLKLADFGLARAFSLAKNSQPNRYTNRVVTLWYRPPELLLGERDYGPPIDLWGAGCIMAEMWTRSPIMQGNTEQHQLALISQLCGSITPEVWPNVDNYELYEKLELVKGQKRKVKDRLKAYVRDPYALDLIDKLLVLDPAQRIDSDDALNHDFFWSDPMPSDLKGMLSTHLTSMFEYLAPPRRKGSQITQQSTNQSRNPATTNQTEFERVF
Chain of off-target kinases (Homo sapiens, UniProt P29597) (P29597 whole entry): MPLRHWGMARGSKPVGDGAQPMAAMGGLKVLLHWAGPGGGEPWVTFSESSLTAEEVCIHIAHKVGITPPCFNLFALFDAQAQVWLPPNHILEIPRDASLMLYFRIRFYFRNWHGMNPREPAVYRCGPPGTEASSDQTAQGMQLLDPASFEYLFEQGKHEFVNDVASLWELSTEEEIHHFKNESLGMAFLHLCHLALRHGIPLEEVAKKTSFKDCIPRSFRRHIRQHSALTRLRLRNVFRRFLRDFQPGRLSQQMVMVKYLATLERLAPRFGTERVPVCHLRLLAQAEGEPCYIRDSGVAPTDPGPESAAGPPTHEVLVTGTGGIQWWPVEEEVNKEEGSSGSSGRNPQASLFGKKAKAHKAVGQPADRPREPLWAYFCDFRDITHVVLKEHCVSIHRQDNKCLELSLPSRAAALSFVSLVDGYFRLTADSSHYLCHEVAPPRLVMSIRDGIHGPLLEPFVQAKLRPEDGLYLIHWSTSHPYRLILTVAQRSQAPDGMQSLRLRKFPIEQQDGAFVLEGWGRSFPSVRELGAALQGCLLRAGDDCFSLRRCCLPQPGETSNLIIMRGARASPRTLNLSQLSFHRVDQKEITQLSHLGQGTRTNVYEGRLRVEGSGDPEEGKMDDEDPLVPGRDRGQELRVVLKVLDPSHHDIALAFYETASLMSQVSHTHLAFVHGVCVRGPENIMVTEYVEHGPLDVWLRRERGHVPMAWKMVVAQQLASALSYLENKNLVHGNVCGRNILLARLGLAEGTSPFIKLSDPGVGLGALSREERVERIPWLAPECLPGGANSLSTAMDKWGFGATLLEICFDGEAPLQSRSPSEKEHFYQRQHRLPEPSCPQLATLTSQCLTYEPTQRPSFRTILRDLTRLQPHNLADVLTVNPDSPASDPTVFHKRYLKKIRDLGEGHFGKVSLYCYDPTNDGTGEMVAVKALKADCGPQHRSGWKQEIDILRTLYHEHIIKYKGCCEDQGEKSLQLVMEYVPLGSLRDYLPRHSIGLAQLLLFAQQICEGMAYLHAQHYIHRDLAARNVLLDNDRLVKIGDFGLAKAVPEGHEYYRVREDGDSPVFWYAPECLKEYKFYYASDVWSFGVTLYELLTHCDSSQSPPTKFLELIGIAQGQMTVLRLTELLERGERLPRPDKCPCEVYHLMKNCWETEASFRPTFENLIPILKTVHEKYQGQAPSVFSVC
Chain of off-target kinases (Homo sapiens, UniProt P45984) (P45984 whole entry): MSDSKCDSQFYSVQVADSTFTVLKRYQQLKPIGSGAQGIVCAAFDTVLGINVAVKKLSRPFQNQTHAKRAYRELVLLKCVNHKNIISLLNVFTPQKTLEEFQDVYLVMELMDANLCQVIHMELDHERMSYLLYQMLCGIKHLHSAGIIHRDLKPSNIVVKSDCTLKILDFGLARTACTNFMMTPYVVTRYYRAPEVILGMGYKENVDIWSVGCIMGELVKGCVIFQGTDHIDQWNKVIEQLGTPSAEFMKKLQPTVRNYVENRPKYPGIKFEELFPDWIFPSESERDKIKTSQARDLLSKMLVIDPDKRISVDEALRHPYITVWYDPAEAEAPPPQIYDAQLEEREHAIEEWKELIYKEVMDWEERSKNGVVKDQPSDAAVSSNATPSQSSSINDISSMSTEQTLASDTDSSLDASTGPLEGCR

Compound `N#Cc1cc(-c2ncnc(Nc3ccc(N4CCN(C5COC5)CC4)cc3)n2)ccc1OC1CCOCC1` [Compound 1, 5-(4-((4-(4-(oxetan-3-yl)piperazin-1-yl)phenyl)amino)-1,3,5-triazin-2-yl)-2-((tetrahydro-2H-pyran-4-yl)oxy)benzonitrile] has an inhibition (off-target kinases [1]; read-out: % Inhibition 1) of 48%, an inhibition (off-target kinases [1]; read-out: % Inhibition 2) of 48% and an inhibition (off-target kinases [1]; read-out: % Inhibition Avg) of 48%. The inhibition (off-target kinases [2]; read-out: % Inhibition 1) was 91%, the inhibition (off-target kinases [2]; read-out: % Inhibition 2) was 90% and the inhibition (off-target kinases [2]; read-out: % Inhibition Avg) was 90%. For the same compound, the inhibition (off-target kinases [3]; read-out: % Inhibition 1) was 65%, the inhibition (off-target kinases [3]; read-out: % Inhibition 2) was 64% and the inhibition (off-target kinases [3]; read-out: % Inhibition Avg) was 64%. It also gave an inhibition (off-target kinases [4]; LanthaScreen Binding, read-out: % Inhibition 1) of 12%, an inhibition (off-target kinases [4]; LanthaScreen Binding, read-out: % Inhibition 2) of 14% and an inhibition (off-target kinases [4]; LanthaScreen Binding, read-out: % Inhibition Avg) of 13%. It also gave an inhibition (off-target kinases [4]; ZLYTE, ATP 100, read-out: % Inhibition 1) of 12%, an inhibition (off-target kinases [4]; ZLYTE, ATP 100, read-out: % Inhibition 2) of 21% and an inhibition (off-target kinases [4]; ZLYTE, ATP 100, read-out: % Inhibition Avg) of 16%. It also gave an inhibition (off-target kinases [5]; CDK9 (Inactive), LanthaScreen Binding, read-out: % Inhibition 1) of 8%, an inhibition (off-target kinases [5]; CDK9 (Inactive), LanthaScreen Binding, read-out: % Inhibition 2) of 13% and an inhibition (off-target kinases [5]; CDK9 (Inactive), LanthaScreen Binding, read-out: % Inhibition Avg) of 10%. For the same compound, the inhibition (off-target kinases [5]; CDK9/cyclin K, LanthaScreen Binding, read-out: % Inhibition 1) was 11%, the inhibition (off-target kinases [5]; CDK9/cyclin K, LanthaScreen Binding, read-out: % Inhibition 2) was 9% and the inhibition (off-target kinases [5]; CDK9/cyclin K, LanthaScreen Binding, read-out: % Inhibition Avg) was 10%. It also gave an inhibition (off-target kinases [5]; CDK9/cyclin T1, Adapta, ATP Km app, read-out: % Inhibition 1) of 18%, an inhibition (off-target kinases [5]; CDK9/cyclin T1, Adapta, ATP Km app, read-out: % Inhibition 2) of 22% and an inhibition (off-target kinases [5]; CDK9/cyclin T1, Adapta, ATP Km app, read-out: % Inhibition Avg) of 20%. For the same compound, the inhibition (off-target kinases [6]; read-out: % Inhibition 1) was 17%, the inhibition (off-target kinases [6]; read-out: % Inhibition 2) was 13% and the inhibition (off-target kinases [6]; read-out: % Inhibition Avg) was 15%. It also gave an inhibition (off-target kinases [7]; WNK3, LanthaScreen Binding, read-out: % Inhibition 1) of -3%, an inhibition (off-target kinases [7]; WNK3, LanthaScreen Binding, read-out: % Inhibition Avg) of -2% and an inhibition (off-target kinases [7]; read-out: % Inhibition 2) of 0%. For the same compound, the inhibition (off-target kinases [8]; CAMK2A (CaMKII alpha), ZLYTE, ATP Km app, read-out: % Inhibition 1) was 4%, the inhibition (off-target kinases [8]; CAMK2A (CaMKII alpha), ZLYTE, ATP Km app, read-out: % Inhibition Avg) was 2% and the inhibition (off-target kinases [8]; read-out: % Inhibition 2) was 0%.
